# Results taken from patent publication US10293004B2, “Butyrate-producing bacterium and use thereof” (KABUSHIKI KAISHA YAKULT HONSHA, priority 2014, dated 2019).
# Tests used:
# [1] = Production of butyrate by each bacterial strain from L-sorbose and D-xylitol (ion-exclusion HPLC); settings: 24 hours, minus PYA blank
# Experimental: A frozen stock solution of each bacterial strain (a 10% (w/v) skim milk-2% sodium glutamate solution in which bacterial cells were suspended) (cell count: 2.0 to 5.5×10^10 cells/mL) was thawed, and the solution was inoculated at 1% to 4 mL of a PY liquid medium supplemented with 33 mM sodium acetate and 0.5 (w/v) % glucose (PYGA medium), followed by anaerobic culture at 37° C. for 24 hours. After the culture, the culture solution was inoculated at 1% to a fresh PYGA medium, followed by anaerobic culture at 37° C. for 24 hours. After the culture, the turbidity (OD660) of the culture solution was measured. Then, the culture solution was inoculated at 1% to a PY medium containing 0.5 (w/v) % L-sorbose or D-xylitol and 33 mM sodium acetate (the medium containing L-sorbose: PYSA, and the medium containing D-xylitol: PYXA), followed by anaerobic culture at 37° C. for 24 hours. Then, the turbidity (OD660) was measured.
# After the completion of the culture, the organic acid concentration in the culture solution was quantified by ion-exclusion HPLC. In this operation, a culture solution in a PY medium supplemented with sodium acetate but without L-sorbose or D-xylitol (PYA medium) was used as a blank.
# (HPLC Analysis Conditions) • Eluent: 15 mM perchloric acid-7% acetonitrile • pH adjuster: 15 mM perchloric acid-60 mM • tris(hydroxymethyl)aminomethane-7% acetonitrile • Separation column: Organic acid analysis column RSpak KC- • 811×2 (manufactured by Showa Denko K.K.) • Column temperature: 42° C. • Injected sample volume: 10 μL • Flow rate: 1.0 mL/min • Analysis time: 35 min • Detector: Waters 432 electric conductivity detector • Cell temperature: 45° C.
# The amount of butyrate produced was calculated according to (Expression 1). Amount of butyrate produced=(Amount of butyrate produced by culture for 24 hours in a PYSA or PYXA medium)−(Amount of butyrate produced by culture for 24 hours in a PYA medium) (Expression 1)
# [2] = Biochemical properties: enzymatic activity (API-ZYM, Rapid ID32A API, API KENKI 20A); parameters: key: +: positive reaction; −: negative reaction; +^w: weak reaction
# From the text: Commercially available API-ZYM, Rapid ID32A API, and API KENKI 20A (SYSMEX bioMerieux Co., Ltd.) were used in the testing of biochemical properties of various bacterial strains. The testing method followed the product manuals.
# [3] = test system: mouse C57BL/6J; assay: Single oral dose test of YIT 12355 to mouse given indigestible saccharide; assay type: in vivo
# Experimental: Mice were acclimatized and raised with F2 feed for 1 week and then divided into 4 groups such that the average body weight was almost equal among these groups. A control diet (Table 12) was administered thereto for 1 week. Then, the control diet was administered to the control group (−/− group) and the AH/− group for 2 weeks while purified feed containing maltitol (MAL-containing diet) was administered to the −/MAL group and the AH/MAL group for 2 weeks. A live cell suspension of YIT 12355 was administered at a single dose using a probe after the administration of the control diet for 1 week. At the final day of the test, each mouse was dissected, and the cecal contents were recovered. The cecal contents were subjected to the cell count measurement of YIT 12355. • Test material: Maltitol (5% mixed feed administration) • Administered bacterial strain: YIT 12355 • Animal species: Mouse C57BL/6J (4 weeks old; CLEA Japan, Inc.) • Group configuration: 7 mice×4 groups The bacterial solution (viable count: 3.1×10^9 cfu/mL, total cell count: 1.9×10^10 cells/mL) prepared in the preceding paragraph 2) was orally administered at a single dose of 0.2 mL (viable count: 6.2×10^8 cfu/mouse, total cell count: 3.8×10^9 cells/mouse) to each mouse using a probe. To the control group and the −/MAL group, 0.2 mL of physiological saline was administered instead of the bacterial solution. […] Then, the cecal contents were recovered. The cecal contents were diluted 10-fold with PBS and subjected to DNA extraction. DNA was extracted by the bead-phenol method described in the paragraph 4)a) of Example 5 from the 10-fold diluted solution of the intestinal tract contents. The cell count of YIT 12355 was measured by quantitative PCR using the obtained DNA as a template and the bacterial species-specific primers described in the paragraph 4)a) of Example 5. After fixation of a portion of the 10-fold diluted solution of the intestinal tract contents in a 4% solution of paraformaldehyde in PBS, the total cell count was measured by the DAPI counting method. The cell count of YIT 12355 was divided by the total cell count to calculate an occupancy (%). (Occupancy of YIT 12355) (%)=(Cell count of YIT 12355/Total cell count)×100 (Expression 5)
# [4] = test system: mouse fresh feces; assay: Relationship between increase in cell count of YIT 12355 and butyrate concentration in mouse feces culture system
# Experimental: 0.8 g of mouse fresh feces obtained 1 week after the start of the single dose test of Example 6 was collected into a sample tube and the tube was transferred into a glove box with the low-temperature and anaerobic state maintained. The feces were diluted with PBS anaerobically substituted in advance (final dilution: 12.5-fold), and a maltitol solution (final concentration: 0.5%) and/or a cultured bacterial solution of YIT 12355 (1% inoculated) was added thereto, followed by anaerobic culture at 37° C. for 24 hours. After the culture, the butyrate concentration was measured by ion-exclusion HPLC using an electric conductivity detector.
# [5] = summary in words of Table 13, single dose
substance,measurement,setting,value
A. hadrus (Eubacterium hadrum) YIT 12355 (NITE BP-01832),Amount of butyrate produced,"[1]; D-Xylitol 0.5 (w/v) %, PYXA medium",31.9 mmol/L
same,Amount of butyrate produced,"[1]; L-Sorbose 0.5 (w/v) %, PYSA medium",15.4 mmol/L
same,Acid phosphatase,[2],+
same,Alkaline phosphatase,[2],+
same,Esterase (C4),[2],+
same,Naphthol-AS-B1-phosphohydrolase,[2],+
same,α-Glucosidase,[2],+^w
same,β-Galactosidase,[2],+
same,β-Galactosidase-6-phosphate,[2],−
same,Total cell count,"[3]; cecum, DAPI counting method, single oral dose",10.9 ± 0.4 log10 (cells/g contents)
same,"Cell count, A. hadrus YIT 12355","[3]; cecum, quantitative PCR, single oral dose",8.0 ± 0.3 log10 (cells/g contents)
same,Occupancy,"[3]; cecum, ratio to total cell count, single oral dose",0.3%
same,cell count of YIT 12355,[3]; [5],largely changes neither
same,occupancy of YIT 12355,[3]; [5],largely changes neither
same,cell count of A. hadrus,[4],increased
same,butyrate concentration,"[4]; maltitol 0.5% and/or YIT 12355 1% inoculated, 37° C. 24 hours, FIG. 8",increased
